Test: Plasma Kallikrein Assay: Test substances are dissolved in dimethyl sulphoxide and serially diluted in dimethyl sulphoxide (3000 μM to 0.0078 μM; resulting final concentrations in the test: 50 μM to 0.00013 μM). 1 μl of the diluted substance solutions is placed into each of the wells of white microtitre plates from Greiner (384 wells). 20 μl of assay buffer (50 mM Tris/HCl pH 7.4; 100 mM sodium chloride solution; 5 mM of calcium chloride solution; 0.1% of bovine serum albumin) and 20 μl of plasma kallikrein from Kordia (0.6 nM in assay buffer) are then added successively. After 15 min of incubation, the enzyme reaction is started by addition of 20 μl of the substrate H-Pro-Phe-Arg-AMC dissolved in assay buffer (10 μM in assay buffer) from Bachem, the mixture is incubated at room temperature (22° C.) for 30 min and fluorescence is then measured (excitation: 360 nm, emission: 460 nm). The measured emissions of the test batches with test substance are compared to those of control batches without test substance (only dimethyl sulphoxide instead of test substance in dimethyl sulphoxide), and IC50 values are calculated from the concentration/activity relationships.

IC50: 100 nM
SMILES: COCCC(C(=O)Nc1cc(F)c(C(N)=O)s1)n1cc(OC)c(-c2cc(Cl)ccc2C#N)cc1=O (stereo unspecified)
